According to patent EP4692072A1, “PHOTOCHROMIC COMPOUND, PROPARGYL ALCOHOL COMPOUND, CURABLE COMPOSITION, OPTICAL ARTICLE, LENS, AND SPECTACLES” (TOKUYAMA CORPORATION, priority 2023, dated 2024):

Tests used:
[1] = Photochromic properties of photochromic laminate (plastic lens) prepared by coating method; assay type: physicochemical; settings: 40 µm photochromic layer on thiourethane lens, 0.25 mmol compound per 100 g monomers, after color development
Description: (§1) First, the photochromic compound obtained in Example 1, a photoinitiator, and a polymerizable compound were mixed to obtain a curable composition.
(§2) Polyethylene glycol dimethacrylate (average molecular weight: 736): 42 parts by mass • Polyethylene glycol dimethacrylate (average molecular weight: 536): 12 parts by mass • Trimethylolpropane trimethacrylate: 38 parts by mass γ-methacryloyloxypropyl trimethoxysilane: 2 parts by mass Glycidyl methacrylate: 1 part by mass
(§3) Note that the photochromic compound was added to the curable composition so that the amount of the photochromic compound was 0.25 mmol based on 100 g of the total amount of the radical-polymerizable monomers.
(§4) Phenylbis(2,4,6-trimethylbenzoyl)phosphine oxide (photoinitiator: Omnirad 819): 0.3 parts by mass Ethylene bis(oxyethylene) bis[3-(5-tert-butyl-4-hydroxy-m-tolyl)propionate] (stabilizer, Irganox 245): 1 part by mass Bis(1,2,2,6,6-pentamethyl-4-piperidyl) sebacate: 3 parts by mass Leveling agent (L7001) manufactured by Dow Corning Toray Co.,Ltd.: 0.1 part by mass
(§5) First, a thiourethane-based plastic lens having a central thickness of 2 mm and a refractive index of 1.60 was prepared as the optical substrate. Note that this thiourethane-based plastic lens was pre-treated by alkaline etching with a 10% sodium hydroxide aqueous solution at 50°C for 5 minutes, followed by sufficient washing with distilled water.
(§6) A surface of the above-described plastic lens was coated with a moisture-curable primer (product name: TR-SC-P, manufactured by Tokuyama Corporation) at a rotation frequency of 70 rpm for 15 seconds, followed by 1000 rpm for 10 seconds, using a spin coater (1H-DX2, manufactured by MIKASA CO., LTD), Subsequently, about 2 g of the photochromic curable composition obtained above was spin-coated at a rotation frequency of 60 rpm for 40 seconds, followed by 600 rpm for 10 to 20 seconds, to form a photochromic coating layer with a film thickness of 40 µm.
(§7) The lens with the surface coated with the photochromic curable composition (photochromic coating layer) was irradiated with light using a metal halide lamp with an output power of 200 mW/cm^2 in a nitrogen gas atmosphere for 90 seconds to cure the coating film. Subsequently, the lens was further heated at 110°C for 1 hour to prepare a photochromic laminate having a photochromic layer.
In the same manner as in Example 26, photochromic laminates were prepared using the photochromic compounds obtained in Examples 2 to 25.
(§8) • [1] Maximum Absorption Wavelength (λmax): The maximum absorption wavelength after color development, measured using a spectrophotometer (instantaneous multichannel photodetector MCPD3000) manufactured by Otsuka Electronics Co., Ltd. was used as an indicator for the color tone during the color development. • [2] 23°C Color Optical Density (A23): A difference between an absorbancy measured after light irradiation at 23°C for 300 seconds {ε(300)} and an absorbancy without light irradiation ε(0) at the maximum absorption wavelength was used as an indicator for the color optical density. […] 23°C color fading half-life [τ1/2 (sec.)]: A time required for the absorbancy of the sample at the maximum absorption wavelength to decrease to 1/2 of {ε(300)-ε(0)} when the light irradiation was terminated after the light irradiation at 23°C for 300 seconds, was used as an indicator for the color fading speed. The shorter this time, the higher the color fading speed. • [4] Residual rate (A120/A0×100): The obtained photochromic plastic lens was subjected to accelerated deterioration using a xenon weather meter X25 manufactured by Suga Test Instruments Co., Ltd. for 120 hours. Subsequently, the color optical density was evaluated before and after the test, then a color optical density before the test (A0) and a color optical density after the test (A120) were measured, and a ratio (A120/A0) was defined as a residual rate. The residual rate was used as an indicator for a color developing durability. […]

[2] = Accelerated deterioration (xenon weather meter X25, 120 hours) of photochromic laminate prepared by coating method; assay type: physicochemical; settings: 0.25 mmol per 100 g monomers, A120/A0×100 after 120 hours xenon weather meter
Description: as §1, §2, §3, §4, §5, §6, §7
as §8, with “durability. The higher the residual rate, the higher the color developing durability.” for “durability.”

SMILES | Maximum absorption wavelength [1] [nm] | Residual rate [2] [%] | other results
CCCCCCC1(CCCCCC)c2ccccc2-c2c1c1c(c3cc(OC)ccc23)OC(c2ccc(F)cc2)(c2ccc(N(CC)c3ccccc3)cc2)C=C1 (centres unmarked) [Example 4] | 489 | 57 | Maximum absorption wavelength ([1]; listed as Formula (48)): 601 nm
CCCOc1ccc(C2(c3ccc(N(CC(F)(F)F)c4ccccc4)cc3)C=Cc3c4c(c5ccccc5c3O2)-c2ccccc2C42CCCCCCC2)cc1 (centres unmarked) [Example 9] | 578 | 62 | –
CCCCC1(CCCC)c2cc([Si](C)(c3ccccc3)c3ccccc3)ccc2-c2c1c1c(c3cc(OC)c(C)cc23)OC(c2ccc(C)cc2)(c2ccc(N(C)c3ccccc3)cc2)C=C1 (centres unmarked) [Example 15] | 487 | 58 | Maximum absorption wavelength ([1]; listed as Formula (75)): 602 nm
CCCOc1ccc(C2(c3ccc(N(CC(F)(F)F)c4ccccc4)cc3)C=Cc3c4c(c5cc(-c6ccc(OC)cc6)c(C)cc5c3O2)-c2ccc(C)cc2C4(CC)CC)cc1 (centres unmarked) [Example 17] | 484 | 56 | Maximum absorption wavelength ([1]; listed as Formula (78)): 592 nm
COc1ccc(C2(c3ccc(N(C)c4ccccc4)cc3)C=Cc3c4c(c5cc(-c6ccc(N7CCSCC7)cc6)c(OC)cc5c3O2)-c2ccc(OC)cc2C4(CCC(F)(F)F)CCC(F)(F)F)cc1 (centres unmarked) [Example 54] | 501 | 67 | Maximum absorption wavelength ([1]; listed as Formula (96)): 628 nm
CCCc1ccc(C2(c3ccc(N(C)c4ccccc4)cc3)C=Cc3c4c(c5cc(OC)ccc5c3O2)-c2ccccc2C42CCCCCCC2)cc1 (centres unmarked) [Example 61] | 487 | 59 | Maximum absorption wavelength ([1]; listed as Formula (122)): 564 nm; Residual rate ([2]; listed as Formula (122)): 57%

Further lines, with some results ahead:

Maximum absorption wavelength [1] [nm] | Residual rate [2] [%] | SMILES | other results
481 | 70 | COc1ccc(C2(c3ccc(N(c4ccccc4)C4CCCCC4)cc3)C=Cc3c4c(c5cc(OC)c(OC)cc5c3O2)-c2ccccc2C4(CCCCF)CCCCF)cc1 (centres unmarked) [Example 6] | Maximum absorption wavelength ([1]; listed as Formula (53)): 593 nm; Residual rate ([2]; listed as Formula (53)): 63%
478 | 65 | COc1ccc(C2(c3ccc(N(C)c4ccccc4)cc3)C=Cc3c4c(c5cc(-c6c(OC)cc(OC)cc6OC)c(OC)cc5c3O2)-c2ccc(C)cc2C4(CCCSC)CCCSC)cc1 (centres unmarked) [Example 12] | Maximum absorption wavelength ([1]; listed as Formula (66)): 614 nm
489 | 65 | COc1cc2c3c(c4c(c2cc1OC)-c1ccc(-c2ccc(C(F)(F)F)cc2)cc1C4(CCCC(F)(F)F)CCCC(F)(F)F)C=CC(c1ccc(Oc2ccccc2)cc1)(c1ccc(N(C)c2ccccc2)cc1)O3 (centres unmarked) [Example 13] | Maximum absorption wavelength ([1]; listed as Formula (69)): 605 nm; Residual rate ([2]; listed as Formula (69)): 60%
587 | 60 | CCCc1ccc(C2(c3ccc(N(C)c4ccccc4)cc3)C=Cc3c4c(c5cc(-c6ccc(C)cc6)c(C)cc5c3O2)-c2ccccc2C4(CCOC)CCOC)cc1 (centres unmarked) [Example 18] | –
486 | 67 | COCCCC1(CCCOC)c2cc(-c3ccc(C(C)(C)C)cc3)ccc2-c2c1c1c(c3cc(OC)c(OC)cc23)OC(c2ccc(N(CCOC)c3ccccc3)cc2)(c2ccc3c(c2)OCCO3)C=C1 (centres unmarked) [Example 20] | Maximum absorption wavelength ([1]; listed as Formula (81)): 608 nm; Residual rate ([2]; listed as Formula (81)): 63%
530 | 68 | CCCC1(CCC)c2ccccc2-c2c1c1c(c3cc(OC)c(N(c4ccccc4)c4ccccc4)cc23)OC(c2ccc(C)cc2)(c2ccc(N(C)c3ccccc3)cc2)C=C1 (centres unmarked) [Example 22] | –
488 | 58 | COc1ccc(C2(c3ccc(N(C)c4ccccc4)cc3)C=Cc3c4c(c5cc6c(cc5c3O2)SC(C)(C)S6)-c2ccc(-c3ccc(F)c(F)c3F)cc2C42CCCCCCCCCCC2)cc1 (centres unmarked) [Example 52] | Maximum absorption wavelength ([1]; listed as Formula (93)): 604 nm; Residual rate ([2]; listed as Formula (93)): 56%
498 | 60 | COCCCCC1(CCCCOC)c2cc(-c3ccccc3)ccc2-c2c1c1c(c3cc(OC)c(N4CCS(=O)(=O)CC4)cc23)OC(c2ccc(OCCOCCOC)cc2)(c2ccc(N(C)c3ccccc3)cc2)C=C1 (centres unmarked) [Example 58] | Maximum absorption wavelength ([1]; listed as Formula (114)): 617 nm
